Square brackets hold non-standard residues; d marks the D form. * marks the point of attachment. 2Nal = N[C@@H](Cc1ccc2ccccc2c1)C(=O)O; Propionyl = CCC(=O)*; Sar = CNCC(=O)O
Tests used:
[1] = system: CD2F1 mice exposed to TBI (7 Gy); assay: Circulating biomarkers (EPO, FLT3 ligand, MMP9, VCAM1, E-Selectin, sP-Selectin) after 7 Gy TBI; format: in vivo, mouse
Description: Harvesting blood and tissues for various molecular assays: RWJ-800088 (0.3 mg/kg) or saline (n=6 per group) was administered SC 24 hour prior to irradiation. The experimental animals received either 0 or 7 Gy radiation (non-lethal dose) in the AFRRI Co-60 gamma radiation facility. […] The femurs and sterna were then collected and processed as described below.

[2] = system: dogs after whole body radiation at an LD50 exposure; assay: Dog pilot whole body irradiation study; format: in vivo; conditions: single 10 mg/kg dose 24 hours after whole body radiation at LD50
Description: A pilot radio-mitigation study was conducted in dogs with RWJ-800088.

[3] = system: C3H/HeN male mice exposed to TBI; assay: 30-day survival after TBI in C3H/HeN mice; format: in vivo, mouse; conditions: C3H/HeN M, 8.75 Gy, 3 mg/kg single dose, Pre −24 hr; for Survival treatment: 3 mg/kg
Description: (§1) Total Body Irradiation (TBI). Mice were irradiated bilaterally in the Cobalt-60 gamma-irradiation facility at the AFRRI. These animals were placed in well-ventilated plexiglass chambers made specifically for irradiating mice. An alanine/Electron Spin Resonance (ESR) dosimetry system (American Society for Testing and Material Standard E 1607) was used to measure the dose rates in the cores of acrylic phantoms (3 inches long and 1 inch in diameter) located in all empty slots of the exposure rack in the plexiglass chamber. ESR signals were measured with a calibration curve based on standard calibration dosimeters provided by the National Institute of Standard and Technology (NIST, Gaithersburg, Md.). The calibration curve was verified by inter-comparison with the National Physical Laboratory (NPL) in the United Kingdom. The corrections applied to the measured dose rates in phantoms were for decay of the Co-60 source and for a small difference in mass-energy absorption coefficients for water and soft tissue at the Co-60 energy level. Kaplan-Meier survival curves were plotted using GraphPad software; and trend in survival is compared between vehicle and drug-treated group.
(§2) The survival efficacy of RWJ-800088 was tested in C57BL/6 (another strain of mice with different radiation sensitivity compared to CD2F1) in males and females. […] All animals in saline treated groups (males and females) died whereas there was no mortality in RWJ-800088 treated groups 30 days post-TBI. […] All animals in saline treated groups died whereas there was 92% survival observed in the RWJ-800088 (24 h pre-TBI) treated group 30 days post-TBI.

[4] = system: C57BL/6 mice exposed to TBI; assay: 30-day survival after TBI in C57BL/6 mice; format: in vivo, mouse
Description: as §1, §2
To confirm the survival benefit provided by RWJ-800088 administration following TBI in another mouse strain with difference in radiation sensitivity, C57BL/6 male mice were irradiated at 8.0 Gy (˜LD70/30) followed by administration of a single subcutaneous dose of RWJ-800088 (1 mg/kg) at 24 h after TBI. The percentage of mice surviving on day 30 post-TBI for the RWJ-800088 treated group was 83% and for the saline treated group it was only 13% (2).

[5] = system: CD21F1 male mice exposed to TBI; assay: Dose reduction factor (DRF) and long-term survival study after TBI; format: in vivo, mouse
Description: Methods: CD21F1 male mice were used in a DRF (dose reduction factor) study to determine LD50/30 for animals administered with RWJ-800088 or it's vehicle (saline). This included irradiating cohorts of 24 animals at various total body irradiation (TBI) doses (Saline: 7.5, 8.0, 8.5, 9.0, 9.5, and 10 Gy; RWJ-800088: 10.5, 11.0, 11.5, 11.75, 12, and 12.5 Gy). Following the 30 day survival study, surviving animals were monitored for up to 1 year with planned collection points at 6 months and 1 year.
RWJ-800088 administration timing and doses: RWJ-800088 was administered […] at a dose of 1 mg/kg 24 h prior to irradiation.

Rat = assay: Maximum platelet elevation relative to baseline in normal healthy rats, single escalating doses; format: in vivo; design: key to pharmacodynamics (PD) effect class of the dose (beneficial effects on survival): **: large pharmacodynamics (PD) effect; *: modest effect; conditions: for Rat Max Platelet Ratio: TOX6984
Description: The ratio of the maximum platelet counts to the baseline platelet counts following single escalating doses of RWJ-800088 to mice, rats, dogs, rhesus monkeys and human healthy volunteers is shown in Table 5. The dose required to achieve a 2-3.5-fold elevation in humans is ˜100-fold lower compared to mice, ˜1,000-fold lower compared to rats and >10,000-fold lower compared to canines and NHPs. […] The species differences in potency has been described for other TPO mimetics in the literature and is attributed to differences in receptor affinity (Erickson-Miller C L, et al. Discovery and characterization of a selective, nonpeptidyl thrombopoietin receptor agonist. Exp. Hematol. 2005; 33:85-93). […] It is discovered that the dose of RWJ-800088 that produces a survival benefit and protects against vascular and organ injury is the dose that produces a 2-4 fold elevation of platelets (Table 6).

[6] = C57BL/6 Both genders, 7.76 Gy, 0.3 mg/kg single dose, Post 6 hr
[7] = C57BL/6 Both genders, 7.76 Gy, 0.3 mg/kg single dose, Post 24 hr
[8] = C57BL/6 Both genders, 7.96 Gy, 0.3 mg/kg single dose, Post 6 hr
[9] = C57BL/6 Both genders, 7.96 Gy, 0.3 mg/kg single dose, Post 24 hr
[10] = C57BL/6 F, 8.75 Gy, 3 mg/kg single dose, Pre −24 hr
[11] = C57BL/6 M, 8.75 Gy, 3 mg/kg single dose, Pre −24 hr
[12] = Group 7, 10.5 Gy, 1 mg/kg 24 h prior to irradiation
[13] = Group 9, 11.5 Gy, 1 mg/kg 24 h prior to irradiation
[14] = Group 12, 12.5 Gy, 1 mg/kg 24 h prior to irradiation

In the case of “methoxypolyethyleneglycol20000-propionyl-L-Isoleucyl-L-Glutamyl-Glycyl-L-Prolyl-L-Threonyl-L-Leucyl-L-Arginyl-L-Glutaminyl-L-2-Naphthylalanyl-L-Leucyl-L-Alanyl-L-Alanyl-L-Arginyl-Sarcosyl-Ne-(methoxypolyethyleneglycol20000-propionyl-L-Isoleucyl-L-Glutamyl-Glycyl-L-Prolyl-L-Threonyl-L-Leucyl-L-Arginyl-L-Glutaminyl-L-2-Naphthylalanyl-L-Leucyl-L-Alanyl-L-Alanyl-L-Arginyl-Sarcosyl-)-Lysinamide ({mPEG 20 kDa-Propionyl}-IEGPTLRQ[2Nal]LAAR[Sar]K-NH2; also: dimer: second identical mPEG-propionyl chain on Lys Nε of C-terminal lysinamide) [RWJ-800088]”, the “circulating levels of erythropoietin (EPO) vs vehicle treated irradiated mice” value ([1]; 7 Gy, 0.3 mg/kg 24 h pre-TBI (FIG. 5A)) was “significantly (p<0.0001) lower”, the “circulating levels of FLT3 ligand vs vehicle treated irradiated mice” value ([1]; 7 Gy, 0.3 mg/kg 24 h pre-TBI (FIG. 5B)) was “significantly (p<0.0001) lower” and the “circulating levels of sP-Selectin vs vehicle” value ([1]; days 2, 3, 7, and 15 post-irradiation) was “statistically significant increases (p<0.0001)”. The “circulating levels of E-Selectin vs vehicle” value ([1]; days 3, 7 15 and 30 post-irradiation) was “statistically significant increases (p<0.0001)”, the “circulating levels of MMP-9 vs vehicle” value ([1]; days 7 and 15 post-irradiation) was “statistically significant increases (p<0.0001)” and the “circulating levels of VCAM-1 vs vehicle” value ([1]; days 15 and 30 post-irradiation) was “statistically significant increases (p<0.0001)”. The Blood transfusions [2] was 1.25/ /animal, the “Days of febrile neutropenia” value [2] was 1.08 and the Diarrhea [2] was 2/12. The “Mean survival time” value [2] was 36 days, the “Mild to moderate necrohemorrhagic bronchioalveolar or minimal subacute bronchioalveolar inflammation” value [2] was 6/12 and the “Mild to severe hematopoietic bone marrow hypocellularity” value [2] was 6/12. For the same substance, the Mortality [2] was 7/12, the Neutropenia nadir [2] was 9e+07 L⁻¹ and the Severe neutropenia duration [2] was 5.4. The “Survival Differential (Treatment-Vehicle)” value (shortened to “Survival Differential”) [3] was 92%, the Survival treatment [3] was 92% and the Survival treatment ([3]; listed as TPOm) was 92%. For the same substance, the “Survival Differential” value [4, 6] was 25%, the Survival treatment [4, 6] was 100% and the “Survival Differential” value [4, 7] was 15%. The Survival treatment [4, 7] was 90%, the “Survival Differential” value [4, 8] was 45% and the Survival treatment [4, 8] was 100%. For the same substance, the “Survival Differential” value [4, 9] was 20%, the Survival treatment [4, 9] was 75% and the “Survival Differential” value [4, 10] was 100%. The Survival treatment [4, 10] was 100%, the “Survival Differential” value [4, 11] was 100% and the Survival treatment [4, 11] was 100%. The “mortality 30 days post-TBI” value ([4]; C57BL/6 male and female, 8.75 Gy (LD100/30), 3 mg/kg 24 h prior to irradiation) was “no mortality”, the “percentage of mice surviving on day 30 post-TBI” value ([4]; C57BL/6 male, 8.0 Gy (~LD70/30), single SC dose 1 mg/kg at 24 h after TBI) was 83% and the DRF value ([5]; 1 mg/kg 24 h prior to irradiation, 95% CI 1.16-2.54) was 1.42. The “LD50 value (radiation dose) for RWJ-800088 treated animals” value ([5]; 1 mg/kg 24 h prior to irradiation, LD50/30) was 12.64 Gy, the “# Surviving (6 months)” value [5, 12] was 10/10 and the “# Surviving (12 months)” value [5, 12] was 5/5. For the same substance, the “# Surviving (30 days)” value [5, 12] was 24/24, the “# Surviving (6 months)” value [5, 13] was 10/10 and the “# Surviving (12 months)” value [5, 13] was 5/5. The “# Surviving (30 days)” value [5, 13] was 22/24, the “# Surviving (12 months)” value [5, 14] was 0/3 and the “# Surviving (30 days)” value [5, 14] was 11/24. For the same substance, the “# Surviving (6 months)” value ([5]; Group 12, 12.5 Gy, two animals were added from 12 Gy) was 7/10, the “Average of the Maximum Platelet Elevation/Baseline Platelet Counts” value (Rat; Rat, dose 3000 μg/kg) was 3.1 and the “pharmacodynamics (PD) effect class of the dose (beneficial effects on survival)” value (Rat; Rat, dose 3000 μg/kg) was “**”. The “Dose for 2.0-4x Platelet Elevation in Healthy Subjects” value (Rat; Rats) was at least 3 mg/kg, the “Rat Max Platelet Ratio” value (Rat; dose 100 μg/kg) was 1.0 ± 0.2 and the “Rat Max Platelet Ratio” value (Rat; dose 300 μg/kg) was 1.7 ± 0.3. For the same substance, the “Rat Max Platelet Ratio” value (Rat; dose 3000 μg/kg) was 3.2 ± 0.6.

Reference: US20220168392A1 (priority 2019, published 2022)
